# Test system: women
# Experiment: Effect of one intake of levonorgestrel within different stages of the menstrual cycle on women pregnancies
# Assay type: in vivo
# Conditions: levonorgestrel 1.5 mg single oral tablet, 1,117 women
# Method: 1,117 women (aged 24.9+/−6.5 years) received levonorgestrel (1.5 mg) in form of a single oral tablet during different stages of their menstrual cycle.
# The reference (day 0) is the ovulation. The fertile period extends from five days before the ovulation to one day after the ovulation.
structure (smiles),measurement,setting,value
"C#C[C@]1(O)CC[C@H]2[C@@H]3CCC4=CC(=O)CC[C@@H]4[C@H]3CC[C@@]21CC [levonorgestrel, D-(−)-ethyl-13β ethynyl-17α hydroxy-17 gonene-4 one-3]",% pregnancies (failures),menstrual cycle stage <−5 day (day 0 = ovulation),0%
same,% pregnancies (failures),menstrual cycle stage >+1 day (day 0 = ovulation),44%
same,% pregnancies (failures),menstrual cycle stage between −5 and +1 day (fertile period),56%

# Reference: patent US20130090318A1, “ONCE-A-MONTH METHOD OF CONTRACEPTION” (LABORATOIRE HRA-PHARMA, priority 2010, published 2013)
